# Tested on: greenhouse red spider mite (Tetranychus urticae)
# Assay: Tetranychus test (OP-resistance/spray treatment) (Example E)
# Format: in vivo
# Details: 100 g/ha; sprayed bean leaf discs
# Experimental: Tetranychus Test (OP-resistance/Spray Treatment)
# (§1) • Solvents: 78 parts by weight of acetone • 1.5 parts by weight of dimethylformamide • Emulsifier: 0.5 part by weight of alkylaryl polyglycol ether
# To prepare a suitable preparation of active compound, 1 part by weight of active compound is mixed with the stated amounts of solvents and emulsifier, and the concentrate is diluted with emulsifier-containing water to the desired concentration.
# Discs of bean leaves (Phaseolus vulgaris) which are infested by all stages of the greenhouse red spider mite (Tetranychus urticae) are sprayed with a preparation of active compound of the desired concentration.
# After the desired period of time, the activity in % is determined. 100% means that all spider mites have been killed; 0% means that none of the spider mites have been killed.
row,SMILES,Kill rate in % after 5d
1,COc1ccccc1-c1ccc(C)c(C2(Cl)C(=O)N3CCOCCN3C2=O)c1 [Ex. I-2-22],90%
2,Cc1ccc(-c2cccc([N+](=O)[O-])c2)cc1C1(Cl)C(=O)N2CCOCCN2C1=O [Ex. I-2-27],100%

# Same assay, conditions: 500 g/ha; sprayed bean leaf discs
row,SMILES,Kill rate in % after 5d
1,Cc1ccc(-c2cccc(Cl)c2Cl)cc1C1(Cl)C(=O)N2CCCCN2C1=O [Ex. I-1-12],90%
2,Cc1cccc(-c2ccc(C)c(C3(Cl)C(=O)N4CCOCCN4C3=O)c2)c1 [Ex. I-2-9],90%
3,Cc1ccc(-c2ccccc2)cc1C1(Cl)C(=O)N2CCCCN2C1=O [Ex. I-1-3],100%
4,Cc1ccc(-c2ccc(OC(F)(F)F)cc2)cc1C1(Cl)C(=O)N2CCCCN2C1=O [Ex. I-1-29],100%
5,Cc1cccc(-c2ccc(C)c(C3(Cl)C(=O)N4CCCCN4C3=O)c2)c1 [Ex. I-1-10],100%
6,Cc1ccc(-c2ccc(OC(F)(F)F)cc2)cc1C1(Cl)C(=O)N2CCOCCN2C1=O [Ex. I-2-28],90%
7,Cc1ccc(-c2cc(Cl)ccc2Cl)cc1C1(Cl)C(=O)N2CCCCN2C1=O [Ex. I-1-14],100%
8,Cc1ccc(-c2ccccc2C(F)(F)F)cc1C1(Cl)C(=O)N2CCOCCN2C1=O [Ex. I-2-19],90%
9,Cc1ccc(-c2ccccc2F)cc1C1(Cl)C(=O)N2CCOCCN2C1=O [Ex. I-2-5],90%

# Tested on: caterpillars of the army worm (Spodoptera frugiperda)
# Assay: Spodoptera frugiperda test (spray treatment) (Example D)
# Format: in vivo
# Details: 100 g/ha; sprayed maize leaf discs
# Experimental: Spodoptera Frugiperda Test (Spray Treatment)
# as §1
# (§2) To produce a suitable preparation of active compound, 1 part by weight of active compound is mixed with the stated amounts of solvents and emulsifier, and the concentrate is diluted with emulsifier-containing water to the desired concentration.
# Discs of maize leaves (Zea mays) are sprayed with a preparation of active compound of the desired concentration and, after they have dried, populated with caterpillars of the army worm (Spodoptera frugiperda).
# After the desired period of time, the activity in % is determined. 100% means that all caterpillars have been killed; 0% means that none of the caterpillars have been killed.
row,SMILES,Kill rate in % after 7d
1,Cc1ccc(-c2ccc(C(F)(F)F)cc2)cc1C1(Cl)C(=O)N2CCCCN2C1=O [Ex. I-1-22],100%

# Same assay, conditions: 500 g/ha; sprayed maize leaf discs
row,SMILES,Kill rate in % after 7d
1,Cc1ccc(-c2ccc(Cl)c(Cl)c2)cc1C1(Cl)C(=O)N2CCCCN2C1=O [Ex. I-1-15],100%
2,Cc1ccc(-c2ccc(F)c(Cl)c2)cc1C1(Cl)C(=O)N2CCCCN2C1=O [Ex. I-1-19],100%
3,Cc1ccc(-c2ccc(Cl)cc2)cc1C1(Cl)C(=O)N2CCOCCN2C1=O [Ex. I-2-4],100%
4,Cc1ccc(-c2cccc(Cl)c2)cc1C1(Cl)C(=O)N2CCOCCN2C1=O [Ex. I-2-3],100%
5,Cc1ccc(-c2cc(Cl)ccc2Cl)cc1C1(Cl)C(=O)N2CCOCCN2C1=O [Ex. I-2-13],100%

# Tested on: larvae of the mustard beetle (Phaedon cochleariae)
# Assay: Phaedon test (spray treatment) (Example C)
# Format: in vivo
# Details: 500 g/ha; sprayed Chinese cabbage discs
# Experimental: Phaedon Test (Spray Treatment)
# as §1, §2
# After the desired period of time, the activity in % is determined. 100% means that all beetle larvae have been killed; 0% means that none of the beetle larvae have been killed.
row,SMILES,Kill rate in % after 7d
1,Cc1ccc(-c2cc(F)ccc2F)cc1C1(Cl)C(=O)N2CCOCCN2C1=O [Ex. I-2-17],100%
2,Cc1ccc(-c2cc(Cl)cc(Cl)c2)cc1C1(Cl)C(=O)N2CCOCCN2C1=O [Ex. I-2-15],100%
3,Cc1ccc(-c2ccc(OC(F)(F)F)cc2)cc1C1(Cl)C(=O)N2CCCCN2C1=O [Ex. I-1-29],100%
4,Cc1ccc(-c2ccc(Cl)cc2Cl)cc1C1(Cl)C(=O)N2CCOCCN2C1=O [Ex. I-2-12],100%
5,Cc1ccc(-c2ccc(Oc3ccc(Cl)cc3)cc2)cc1C1(Cl)C(=O)N2CCOCCN2C1=O [Ex. I-2-34],100%
6,Cc1ccc(-c2ccccc2)cc1C1(Cl)C(=O)N2CCOCCN2C1=O [Ex. I-2-1],100%
7,Cc1ccc(-c2cccc([N+](=O)[O-])c2)cc1C1(Cl)C(=O)N2CCOCCN2C1=O [Ex. I-2-27],100%
8,Cc1cccc(-c2ccc(C)c(C3(Cl)C(=O)N4CCCCN4C3=O)c2)c1 [Ex. I-1-10],100%
9,Cc1ccc(-c2cc(F)ccc2F)cc1C1(Cl)C(=O)N2CCCCN2C1=O [Ex. I-1-18],100%
10,Cc1ccc(-c2cc(Cl)ccc2Cl)cc1C1(Cl)C(=O)N2CCCCN2C1=O [Ex. I-1-14],100%
11,Cc1ccc(-c2ccc(C)c(C3(Cl)C(=O)N4CCCCN4C3=O)c2)cc1 [Ex. I-1-11],100%
12,Cc1ccc(-c2cccc(C(F)(F)F)c2)cc1C1(Cl)C(=O)N2CCOCCN2C1=O [Ex. I-2-20],100%
13,Cc1ccc(-c2ccc(C)c(C3(Cl)C(=O)N4CCOCCN4C3=O)c2)cc1 [Ex. I-2-10],100%
14,Cc1ccc(-c2ccc(Cl)c(Cl)c2)cc1C1(Cl)C(=O)N2CCOCCN2C1=O [Ex. I-2-14],100%

# From patent US7569517B2, “4-biphenyl-substituted pyrazolidin-3 5-diones pesticide agent and/or microbicide and/or herbicide” (Bayer CropScience AG, priority 2003, dated 2009)
